Results taken from patent US20100311748A1, “HETEROCYCLIC AMIDES USEFUL FOR THE TREATMENT OF CANCER AND PSORIASIS” (ASTRAZENECA AB, priority 2007, published 2010).

test system: Hedgehog pathway; assay: Hedgehog Pathway Cellular Differentiation Assay (alkaline phosphatase production in C3H10T1/2 cells with Shh ligand); format: cell-based; details: 3 μM compound, Shh ligand conditioned media, 72 h, alkaline phosphatase
Experimental: Hedgehog Pathway Cellular Differentiation Assay The ability of compounds of the invention to inhibit the Hedgehog pathway can be determined by the following cell differentiation assay. C3H10T1/2 cells were plated into 384 well plates at a concentration of 5000 cells/well in DMEM/10% FBS. The following day the media was changed to 20% conditioned media (low serum media DMEM/2% FBS+Shh ligand). Compounds were solubilized in 100% DMSO to a concentration of 10 mM and then serially diluted three fold in 100% DMSO. The highest concentration in the cell plate was 30 μM and the lowest was 3 nM. The compounds were then added to the cells. Cell plates were incubated with the compound for 72 h and then assayed for alkaline phosphatase production using pNp as a substrate. Briefly, after 72 h of incubation, the media was aspirated from the cells and washed with 30 μl of PBS. PBS was aspirated off the cells and 15 μl of 1×RIPA cell lysis buffer is added on to the cells. The cell plates are then incubated at −80° C. for 30 minutes to insure proper cell lysis. The plates were then thawed back to RT. The substrate solution containing pNp at 1 mg/mL in diethanolamine buffer pH 9.8 was then added onto the lysed cells. The plates were incubated at 30° C. for color development and read at an absorbance of 405 nm. The percent inhibition and IC50 value was then calculated from the absorbance data using standard procedures.

Question: How did the “% Inhibition at 3 μM” value turn out when Cc1ccc(-c2ncc[nH]2)cc1NC(=O)c1ccc2c(c1)OCCO2 [Example 151, N-[5-(1H-imidazol-2-yl)-2-methyl-phenyl]-2,5-dioxabicyclo[4.4.0]deca-7,9,11-triene-8-carboxamide] was run?
Answer: Its value is 21.9%.

Question: For Cc1ccc(-c2ncc[nH]2)cc1NC(=O)c1ccc(OCc2cccc(OCCO)n2)cc1 [Example 122], which “% Inhibition at 3 μM” value is on record?
Answer: The value was 84.6%.

same assay, conditions: Mus musculus, C3H 10T1/2, 3 μM compound, Shh ligand conditioned media, 72 h, alkaline phosphatase

Question: How did the inhibition at 3 µM turn out when Cc1ccc(-c2cnc3ccccc3n2)cc1NC(=O)c1ccc(OCc2ccccn2)cc1 [Example 22, N-(2-methyl-5-quinoxalin-2-yl-phenyl)-4-(pyridin-2-ylmethoxy)benzamide] was run?
Answer: Its inhibition at 3 µM is 60.7%.

Question: For Cc1ccc(-c2ncc[nH]2)cc1NC(=O)c1ccc(NCc2ccc(N3CCOCC3)cn2)cc1 [Example 140, N-(5-(1H-imidazol-2-yl)-2-methylphenyl)-4-((5-morpholinopyridin-2-yl)methylamino)benzamide], which inhibition at 3 µM is on record?
Answer: Its inhibition at 3 µM is 85.5%.

Question: For Cc1ccc(-c2ncc[nH]2)cc1NC(=O)c1ccc(NC(C)c2ccccn2)cc1 (centres unmarked) [Example 118, N-[5-(1H-imidazol-2-yl)-2-methylphenyl]-4-[(1-pyridin-2-ylethyl)amino]benzamide], which inhibition at 3 µM is on record?
Answer: Its inhibition at 3 µM is 75.4%.

Question: Cc1ccc(-c2ncc[nH]2)cc1NC(=O)c1ccc(OCc2ncccc2C#N)cc1 [Example 136, N-(5-(1H-imidazol-2-yl)-2-methylphenyl)-4-((3-cyanopyridin-2-yl)methoxy)benzamide] was tested. Which inhibition at 3 µM did it give?
Answer: Its inhibition at 3 µM is 77%.

Question: How did the inhibition at 3 µM turn out when Cc1ccc(-c2nccn2C)cc1NC(=O)c1ccc(OCc2cc(N3CCN(C)CC3)ccc2C#N)cc1 [Example 115, 4-(2-cyano-5-(4-methylpiperazin-1-yl)benzyloxy)-N-(2-methyl-5-(1-methyl-1H-imidazol-2-yl)phenyl)benzamide] was run?
Answer: Its inhibition at 3 µM is 82.8%.

Question: Cc1ccc(-c2cnc(N)cn2)cc1NC(=O)c1ccc(OCc2ccccn2)cc1 [Example 10, N-[5-(5-aminopyrazin-2-yl)-2-methyl-phenyl]-4-(pyridin-2-ylmethoxy)benzamide] was tested. Which inhibition at 3 µM did it give?
Answer: The inhibition at 3 µM was 63.5%.

Question: With Cc1ccc(-c2nccn2Cc2ncccc2Br)cc1NC(=O)c1ccc(OCc2ncccc2Br)cc1 [Example 121, 4-[(3-bromopyridin-2-yl)methoxy]-N-(5-{1-[(3-bromopyridin-2-yl)methyl]-1H-imidazol-2-yl}-2-methylphenyl)benzamide] as the compound, how does the inhibition at 3 µM read?
Answer: The inhibition at 3 µM was 77.8%.

Question: Cc1cc(Cl)c(-c2cn(C)cn2)cc1NC(=O)c1ccc(OCc2ccccn2)cc1 [Example 75, N-[4-chloro-2-methyl-5-(1-methyl-1H-imidazol-4-yl)phenyl]-4-(pyridin-2-ylmethoxy)benzamide] was tested. Which inhibition at 3 µM did it give?
Answer: The inhibition at 3 µM was 77.8%.

Question: With CCOc1ccnc(COc2ccc(C(=O)Nc3cc(-c4nccn4C)ccc3C)cc2)c1 [Example 97, 4-[(4-ethoxypyridin-2-yl)methoxy]-N-[2-methyl-5-(1-methyl-1H-imidazol-2-yl)phenyl]benzamide] as the compound, how does the inhibition at 3 µM read?
Answer: The inhibition at 3 µM was 81.9%.

Question: With Cc1cc(C)c(-c2nc3ccccc3[nH]2)cc1NC(=O)c1ccc(OCc2ccccn2)cc1 [Example 68, N-[5-(1H-benzimidazol-2-yl)-2,4-dimethylphenyl]-4-(pyridin-2-ylmethoxy)benzamide] as the compound, how does the inhibition at 3 µM read?
Answer: The inhibition at 3 µM was 83.3%.

Question: How did the inhibition at 3 µM turn out when CCc1c[nH]c(-c2ccc(C)c(NC(=O)c3ccc(OCc4ccccn4)cc3)c2)n1 [Example 85, N-[5-(4-ethyl-1H-imidazol-2-yl)-2-methylphenyl]-4-(pyridin-2-ylmethoxy)benzamide] was run?
Answer: The inhibition at 3 µM was 78.8%.

Question: Which inhibition at 3 µM does the source give for Cc1ccc(-c2nccn2C)cc1NC(=O)c1ccc(OCc2cc(N(C)CCN(C)C)ccc2C#N)cc1 [Example 116, 4-[(2-cyano-5-{[2-(dimethylamino)ethyl](methyl)amino}benzyl)oxy]-N-[2-methyl-5-(1-methyl-1H-imidazol-2-yl)phenyl]benzamide] here?
Answer: The inhibition at 3 µM was 83.4%.

Question: Which inhibition at 3 µM does the source give for Cc1nc(-c2ccc(C)c(NC(=O)c3ccc(OCc4ccccn4)cc3)c2)no1 [Example 40, N-(2-methyl-5-(5-methyl-1,2,4-oxadiazol-3-yl)phenyl)-4-(pyridin-2-ylmethoxy)benzamide] here?
Answer: The inhibition at 3 µM was 6.5%.

Question: How did the inhibition at 3 µM turn out when Cc1ccc(-c2ncc(Cn3cccn3)s2)cc1NC(=O)c1ccc(OCc2ccccn2)cc1 [Example 4, N-[2-methyl-5-[5-(pyrazol-1-ylmethyl)1,3-thiazol-2-yl]phenyl]-4-(pyridin-2-ylmethoxy)benzamide] was run?
Answer: Its inhibition at 3 µM is 65.4%.

Question: Cc1ccc(-c2c(C)nn(C)c2C)cc1NC(=O)c1ccc(OCc2ccccn2)cc1 [Example 35, N-[2-methyl-5-(1,3,5-trimethylpyrazol-4-yl)phenyl]-4-(pyridin-2-ylmethoxy)benzamide] was tested. Which inhibition at 3 µM did it give?
Answer: The inhibition at 3 µM was 76.8%.

Question: For Cc1ccc(-c2nc3ccccc3s2)cc1NC(=O)c1ccc(OCc2ccccn2)cc1 [Example 17, N-(5-benzothiazol-2-yl-2-methyl-phenyl)-4-(pyridin-2-ylmethoxy)benzamide], which inhibition at 3 µM is on record?
Answer: The inhibition at 3 µM was 53.5%.

Question: Which inhibition at 3 µM does the source give for Cc1ccc(-c2ccnn2C)cc1NC(=O)c1ccc(OCc2ccccn2)cc1 [Example 34, N-[2-methyl-5-(2-methylpyrazol-3-yl)phenyl]-4-(pyridin-2-ylmethoxy)benzamide] here?
Answer: Its inhibition at 3 µM is 69.4%.

Question: For Cc1ccc(-c2cnc(C)n2C)cc1NC(=O)c1ccc(OCc2ccccn2)cc1 [Example 23, N-[5-(1,2-dimethyl-1H-imidazol-5-yl)-2-methylphenyl]-4-(pyridin-2-ylmethoxy)benzamide], which inhibition at 3 µM is on record?
Answer: Its inhibition at 3 µM is 73.6%.

Question: For Cc1ccc(-c2ncn(C)c2CO)cc1NC(=O)c1ccc(OCc2ccccn2)cc1 [Example 78, N-{5-[5-(hydroxymethyl)-1-methyl-1H-imidazol-4-yl]-2-methylphenyl}-4-(pyridin-2-ylmethoxy)benzamide], which inhibition at 3 µM is on record?
Answer: Its inhibition at 3 µM is 75.1%.

Question: With Cc1ccc(-c2ncc[nH]2)cc1NC(=O)c1ccc(OCc2ccc(OCCO)cn2)cc1 [Example 131, N-(5-(1H-imidazol-2-yl)-2-methylphenyl)-4-((5-(2-hydroxyethoxy)pyridin-2-yl)methoxy)benzamide] as the compound, how does the inhibition at 3 µM read?
Answer: The inhibition at 3 µM was 72.7%.

Question: How did the inhibition at 3 µM turn out when Cc1ccc(-c2nc(-c3cccnc3)c[nH]2)cc1NC(=O)c1ccc(OCc2ccccn2)cc1 [Example 84, N-[2-methyl-5-(4-pyridin-3-yl-1H-imidazol-2-yl)phenyl]-4-(pyridin-2-ylmethoxy)benzamide] was run?
Answer: The inhibition at 3 µM was 79.6%.

Question: Which inhibition at 3 µM does the source give for Cc1ccc(-c2cccc(N)n2)cc1NC(=O)c1ccc(OCc2ccccn2)cc1 [Example 8, N-[5-(6-aminopyridin-2-yl)-2-methyl-phenyl]-4-(pyridin-2-ylmethoxy)benzamide] here?
Answer: The inhibition at 3 µM was 66.5%.

Question: How did the inhibition at 3 µM turn out when Cc1ccc(-c2ncc[nH]2)cc1NC(=O)c1ccc(OCc2ccccn2)nc1 [Example 111, N-[5-(1H-imidazol-2-yl)-2-methylphenyl]-6-(pyridin-2-ylmethoxy)pyridine-3-carboxamide] was run?
Answer: The inhibition at 3 µM was -0.1%.

Question: Which inhibition at 3 µM does the source give for Cc1ccc(-c2nccn2C)cc1NC(=O)c1ccc(OCc2cc(Oc3ccccc3)ccn2)cc1 [Example 96, N-[2-methyl-5-(1-methyl-1H-imidazol-2-yl)phenyl]-4-[(4-phenoxypyridin-2-yl)methoxy]benzamide] here?
Answer: Its inhibition at 3 µM is 79.8%.

Question: For Cc1ccc(-c2ncc[nH]2)cc1NC(=O)c1ccc(COc2ccccc2C#N)cc1 [Example 133, 4-[(2-cyanophenoxy)methyl]-N-[5-(1H-imidazol-2-yl)-2-methylphenyl]benzamide], which inhibition at 3 µM is on record?
Answer: Its inhibition at 3 µM is 77%.

Question: Cc1ccc(-c2ncc[nH]2)cc1NC(=O)c1ccc(OCc2cccc(C#N)c2)cc1 [Example 61, 4-[(3-cyanobenzyl)oxy]-N-[5-(1H-imidazol-2-yl)-2-methylphenyl]benzamide] was tested. Which inhibition at 3 µM did it give?
Answer: Its inhibition at 3 µM is 82.1%.

Question: COc1cc(COc2ccc(C(=O)Nc3cc(-c4nc(C)c[nH]4)ccc3C)cc2)cc(OC)c1 [Example 43, 4-[(3,5-dimethoxyphenyl)methoxy]-N-[2-methyl-5-(4-methyl-1H-imidazol-2-yl)phenyl]benzamide] was tested. Which inhibition at 3 µM did it give?
Answer: Its inhibition at 3 µM is 81.4%.

Question: How did the inhibition at 3 µM turn out when COc1ccnc(COc2ccc(C(=O)Nc3cc(-c4ncc[nH]4)ccc3C)cc2)c1OC [Example 56, 4-[(3,4-dimethoxypyridin-2-yl)methoxy]-N-[5-(1H-imidazol-2-yl)-2-methylphenyl]benzamide] was run?
Answer: Its inhibition at 3 µM is 67.4%.

Question: With Cc1ccc(-c2ncc[nH]2)cc1NC(=O)c1ccc(OCc2ccccn2)cn1 [Example 112, N-[5-(1H-imidazol-2-yl)-2-methylphenyl]-5-(pyridin-2-ylmethoxy)pyridine-2-carboxamide] as the compound, how does the inhibition at 3 µM read?
Answer: The inhibition at 3 µM was 54.3%.

Question: With Cc1ccc(-c2ncc[nH]2)cc1NC(=O)c1ccc(OCc2cccc(N3CCOCC3)n2)cc1 [Example 129, N-[5-(1H-imidazol-2-yl)-2-methylphenyl]-4-[(6-morpholin-4-ylpyridin-2-yl)methoxy]benzamide] as the compound, how does the inhibition at 3 µM read?
Answer: The inhibition at 3 µM was 82.8%.

Question: Cc1cn(C)c(-c2ccc(C)c(NC(=O)c3ccc(OCc4ccccn4)cc3)c2)n1 [Example 26, N-[5-(1,4-dimethyl-1H-imidazol-2-yl)-2-methylphenyl]-4-(pyridin-2-ylmethoxy)benzamide] was tested. Which inhibition at 3 µM did it give?
Answer: The inhibition at 3 µM was 75.7%.

Question: With Cc1ccc(-c2ncc(CN3CCN(C)CC3)s2)cc1NC(=O)c1ccc(OCc2ccccn2)cc1 [Example 2, N-[2-methyl-5-[5-[(4-methylpiperazin-1-yl)methyl]1,3-thiazol-2-yl]phenyl]-4-(pyridin-2-ylmethoxy)benzamide] as the compound, how does the inhibition at 3 µM read?
Answer: The inhibition at 3 µM was 72.3%.

Question: Cc1ccc(-c2ncc[nH]2)cc1NC(=O)c1ccc(OCc2ccccc2C(F)(F)F)cc1 [Example 64, N-[5-(1H-imidazol-2-yl)-2-methylphenyl]-4-{[2-(trifluoromethyl)benzyl]oxy}benzamide] was tested. Which inhibition at 3 µM did it give?
Answer: The inhibition at 3 µM was 79.6%.
